US12077503B2, “Substituted cyclic amides and their use as herbicides” (FMC CORPORATION, priority 2015, dated 2024)
Read-outs that look alike come from different tables or passages of the source.

Columns and labels:
Type in all cases: in vivo
[1] = test system: barnyardgrass (Echinochloa crus-galli); test: Test A preemergence; settings: Echinochloa crus-galli, pre-emergence, 240 h; for pest or weed control at 125 g/ha: 125 g ai/ha; for pest or weed control at 500 g/ha: 500 g ai/ha
Outline: (§1)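 Ratings of 0 (no effect) to 100 (complete control) come from visual comparison with untreated controls roughly 10 d after treatment. Test chemicals, formulated in a non-phytotoxic solvent mixture with surfactant, were applied either as a preemergence directed soil spray on seeded soil or postemergence to one- to two-leaf plants 2 to 10 cm tall.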

[2] = test system: ducksalad (Heteranthera limosa); test: Test B flooded paddy test; settings: Heteranthera limosa, 250 g ai/ha, Flood, read-out: Ducksalad plant response rating
Outline: (§2)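 Compound goes directly into floodwater once pots are flooded 3 cm above soil, targeting plants at two leaves; the water depth is then held for the test duration. Plants sit 13–15 d in a greenhouse and are rated visually, 100 denoting complete control.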

rice (Oryra sativa) = test: Test B flooded paddy test; settings: Oryza sativa, 250 g ai/ha, Flood, read-out: Rice plant response rating
Outline: as §2

[3] = test system: barnyardgrass (Echinochloa crus-galli); test: Test B flooded paddy test; settings: Echinochloa crus-galli, 250 g ai/ha, Flood, read-out: Barnyardgrass plant response rating
Outline: as §2

[4] = test system: sedge, umbrella (small-flower umbrella sedge, Cyperus difformis); test: Test B flooded paddy test; settings: Cyperus difformis, 250 g ai/ha, Flood, read-out: Sedge, Umbrella plant response rating
Outline: as §2

[5] = test system: giant foxtail (Setaria faberii); test: Test A postemergence; settings: Setaria faberi, post-emergence, 240 h; for pest or weed control at 125 g/ha: 125 g ai/ha
Outline: as §1

[6] = test system: pigweed (Amaranthus retroflexus); test: Test A postemergence; settings: Amaranthus retroflexus, post-emergence, 240 h; for pest or weed control at 125 g/ha: 125 g ai/ha
Outline: as §1

corn (Zea mays) = test: Test A postemergence; settings: Zea mays, post-emergence, 240 h; for plant injury at 125 g/ha: visual injury rating after approximately 10 d, read-out: Corn plant response rating (0 to 100 scale, 0 no effect, 100 complete control)
Outline: as §1

[7] = test system: wheat (Triticum aestivum); test: Test A postemergence; settings: Triticum aestivum, post-emergence, 240 h; for plant injury at 125 g/ha: 125 g ai/ha
Outline: as §1

[8] = test system: ragweed (common ragweed, Ambrosia elatior); test: Test A postemergence; settings: Ambrosia artemisiifolia, post-emergence, 240 h; for pest or weed control at 125 g/ha: 125 g ai/ha
Outline: as §1

[9] = test system: blackgrass (Alopecurus myosuroides); test: Test A postemergence; settings: Alopecurus myosuroides, post-emergence, 240 h; for pest or weed control at 125 g/ha: 125 g ai/ha
Outline: as §1

Kochia (Kochia scoparia) = test: Test A postemergence; settings: Bassia scoparia, post-emergence, 240 h; for pest or weed control at 125 g/ha: 125 g ai/ha
Outline: as §1

[10] = test system: ryegrass, Italian (Italian ryegrass, Lolium multiflorum); test: Test A postemergence; settings: Lolium multiflorum, post-emergence, 240 h; for pest or weed control at 125 g/ha: 125 g ai/ha
Outline: as §1

[11] = test system: Galium (catchweed bedstraw, Galium aparine); test: Test A postemergence; settings: Galium, post-emergence, 240 h; for pest or weed control at 125 g/ha: 125 g ai/ha
Outline: as §1

[12] = test system: barnyardgrass (Echinochloa crus-galli); test: Test A postemergence; settings: Echinochloa crus-galli, post-emergence, 240 h; for pest or weed control at 125 g/ha: 125 g ai/ha
Outline: as §1

[13] = 0 to 100 scale where 0 is no effect and 100 is complete control
[14] = preemergence, 0 to 100 scale where 0 is no effect and 100 is complete control, read-out: Barnyardgrass plant response rating
[15] = Preemergence, visual injury vs untreated controls after approximately 10 d, read-out: Barnyardgrass plant response rating (0 to 100 scale where 0 is no effect and 100 is complete control)
[16] = scale of 0 to 100 where 0 is no effect and 100 is complete control
[17] = postemergence, visual injury rating after approximately 10 d, read-out: Foxtail, Giant plant response rating (0 to 100 scale, 0 no effect, 100 complete control)
[18] = postemergence, visual injury rating after approximately 10 d, read-out: Pigweed plant response rating (0 to 100 scale, 0 no effect, 100 complete control)
[19] = postemergence, visual injury rating after approximately 10 d, read-out: Wheat plant response rating (0 to 100 scale, 0 no effect, 100 complete control)
[20] = postemergence, visual injury rating after approximately 10 d, read-out: Ragweed plant response rating (0 to 100 scale, 0 no effect, 100 complete control)
[21] = postemergence, visual injury rating after approximately 10 d, read-out: Blackgrass plant response rating (0 to 100 scale, 0 no effect, 100 complete control)
[22] = postemergence, visual injury rating after approximately 10 d, read-out: Kochia plant response rating (0 to 100 scale, 0 no effect, 100 complete control)
[23] = postemergence, visual injury rating after approximately 10 d, read-out: Ryegrass, Italian plant response rating (0 to 100 scale, 0 no effect, 100 complete control)
[24] = postemergence, visual injury rating after approximately 10 d, read-out: Galium plant response rating (0 to 100 scale, 0 no effect, 100 complete control)
[25] = postemergence, visual injury rating after approximately 10 d, read-out: Barnyardgrass plant response rating (0 to 100 scale, 0 no effect, 100 complete control)

CC(=O)Oc1ccc(F)c(NC(=O)[C@H]2C(=O)N(C)C[C@@H]2c2cc(F)cc(F)c2)c1 [Compound 1019]
0%: pest or weed control at 125 g/ha ([1]; Preemergence, visual injury rating after approximately 10 d, read-out: Barnyardgrass plant response rating (0 to 100 scale, 0 is no effect, 100 is complete control)) | pest or weed control at 500 g/ha ([1]; preemergence, visual injury rating about 10 d after treatment, 0 to 100 scale (0 no effect, 100 complete control), read-out: Barnyardgrass plant response rating) | pest or weed control at 250 g/ha [2, 13] | pest or weed control at 250 g/ha (rice (Oryra sativa); [13]) | pest or weed control at 250 g/ha [3, 13] | pest or weed control at 250 g/ha [4, 13] | pest or weed control at 125 g/ha ([5]; Postemergence, visual injury after approximately 10 d, 0 to 100 scale where 0 is no effect and 100 is complete control, read-out: Plant response rating, Foxtail, Giant) | pest or weed control at 500 g/ha ([5]; 500 g ai/ha, postemergence, visual injury, 0 to 100 scale (0 no effect, 100 complete control), approx. 10 d, read-out: Plant response rating, Foxtail, Giant) | pest or weed control at 125 g/ha ([6]; Postemergence, visual injury after approximately 10 d, 0 to 100 scale where 0 is no effect and 100 is complete control, read-out: Plant response rating, Pigweed) | pest or weed control at 500 g/ha ([6]; 500 g ai/ha, postemergence, visual injury, 0 to 100 scale (0 no effect, 100 complete control), approx. 10 d, read-out: Plant response rating, Pigweed) | Corn plant response rating (crop injury, 0 = no effect, 100 = complete kill) at 125 g/ha (corn (Zea mays); 125 g ai/ha, Postemergence, visual injury after approximately 10 d, 0 to 100 scale where 0 is no effect and 100 is complete control) | Corn plant response rating (crop injury, 0 = no effect, 100 = complete kill) at 500 g/ha (corn (Zea mays); 500 g ai/ha, postemergence, visual injury, 0 to 100 scale (0 no effect, 100 complete control), approx. 10 d) | plant injury at 125 g/ha ([7]; Postemergence, visual injury after approximately 10 d, 0 to 100 scale where 0 is no effect and 100 is complete control, read-out: Plant response rating, Wheat) | plant injury at 500 g/ha ([7]; 500 g ai/ha, postemergence, visual injury, 0 to 100 scale (0 no effect, 100 complete control), approx. 10 d, read-out: Plant response rating, Wheat) | pest or weed control at 125 g/ha ([8]; Postemergence, visual injury after approximately 10 d, 0 to 100 scale where 0 is no effect and 100 is complete control, read-out: Plant response rating, Ragweed) | pest or weed control at 500 g/ha ([8]; 500 g ai/ha, postemergence, visual injury, 0 to 100 scale (0 no effect, 100 complete control), approx. 10 d, read-out: Plant response rating, Ragweed) | pest or weed control at 125 g/ha ([9]; Postemergence, visual injury after approximately 10 d, 0 to 100 scale where 0 is no effect and 100 is complete control, read-out: Plant response rating, Blackgrass) | pest or weed control at 500 g/ha ([9]; 500 g ai/ha, postemergence, visual injury, 0 to 100 scale (0 no effect, 100 complete control), approx. 10 d, read-out: Plant response rating, Blackgrass) | pest or weed control at 125 g/ha (Kochia (Kochia scoparia); Postemergence, visual injury after approximately 10 d, 0 to 100 scale where 0 is no effect and 100 is complete control, read-out: Plant response rating, Kochia) | pest or weed control at 500 g/ha (Kochia (Kochia scoparia); 500 g ai/ha, postemergence, visual injury, 0 to 100 scale (0 no effect, 100 complete control), approx. 10 d, read-out: Plant response rating, Kochia) | pest or weed control at 125 g/ha ([10]; Postemergence, visual injury after approximately 10 d, 0 to 100 scale where 0 is no effect and 100 is complete control, read-out: Plant response rating, Ryegrass, Italian) | pest or weed control at 500 g/ha ([10]; 500 g ai/ha, postemergence, visual injury, 0 to 100 scale (0 no effect, 100 complete control), approx. 10 d, read-out: Plant response rating, Ryegrass, Italian) | pest or weed control at 125 g/ha ([11]; Postemergence, visual injury after approximately 10 d, 0 to 100 scale where 0 is no effect and 100 is complete control, read-out: Plant response rating, Galium) | pest or weed control at 500 g/ha ([11]; 500 g ai/ha, postemergence, visual injury, 0 to 100 scale (0 no effect, 100 complete control), approx. 10 d, read-out: Plant response rating, Galium) | pest or weed control at 125 g/ha ([12]; Postemergence, visual injury after approximately 10 d, 0 to 100 scale where 0 is no effect and 100 is complete control, read-out: Plant response rating, Barnyardgrass) | pest or weed control at 500 g/ha ([12]; 500 g ai/ha, postemergence, visual injury, 0 to 100 scale (0 no effect, 100 complete control), approx. 10 d, read-out: Plant response rating, Barnyardgrass)

CSc1ccccc1NC(=O)[C@H]1C(=O)N(C)C[C@@H]1c1cccc(COC(F)F)c1 [Compound 876]
40%: pest or weed control at 125 g/ha [5, 17]
90%: pest or weed control at 500 g/ha [1, 15]
60%: pest or weed control at 125 g/ha [1, 14] | pest or weed control at 125 g/ha [12, 25]
50%: pest or weed control at 125 g/ha (Kochia (Kochia scoparia); [22])
85%: pest or weed control at 250 g/ha [2, 16]
0%: pest or weed control at 250 g/ha (rice (Oryra sativa); [16]) | pest or weed control at 250 g/ha [3, 16] | pest or weed control at 250 g/ha [4, 16] | pest or weed control at 125 g/ha [6, 18] | plant injury at 125 g/ha (corn (Zea mays); 125 g ai/ha, postemergence) | plant injury at 125 g/ha [7, 19] | pest or weed control at 125 g/ha [8, 20] | pest or weed control at 125 g/ha [9, 21] | pest or weed control at 125 g/ha [10, 23] | pest or weed control at 125 g/ha [11, 24]

CCOc1ccc([C@H]2CNC(=O)[C@@H]2C(=O)Nc2ccc(F)cc2F)cc1 [Compound 908]
30%: pest or weed control at 125 g/ha [5, 17]
20%: pest or weed control at 125 g/ha [12, 25]
50%: pest or weed control at 500 g/ha [1, 15]
0%: pest or weed control at 125 g/ha [1, 14] | pest or weed control at 250 g/ha [2, 16] | pest or weed control at 250 g/ha (rice (Oryra sativa); [16]) | pest or weed control at 250 g/ha [3, 16] | pest or weed control at 250 g/ha [4, 16] | pest or weed control at 125 g/ha [6, 18] | plant injury at 125 g/ha (corn (Zea mays); 125 g ai/ha, postemergence) | plant injury at 125 g/ha [7, 19] | pest or weed control at 125 g/ha [8, 20] | pest or weed control at 125 g/ha [9, 21] | pest or weed control at 125 g/ha (Kochia (Kochia scoparia); [22]) | pest or weed control at 125 g/ha [10, 23] | pest or weed control at 125 g/ha [11, 24]
